Laboratory results reported in US12110289B2, “Heterocyclic compounds, preparation methods and uses thereof” (InventisBio Co., Ltd., priority 2020, dated 2024).

Columns and labels:
[1] = test system: Lung cancer cell line NCI-H358 containing KRas G12C mutation; assay: Assay for cell proliferation (Cell-titer Glo, 5 days); format: cell-based, human
Procedure, shortened: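 NCI-H358 (KRas G12C) cells, 2000 per well, attached overnight at 37 °C, 5% CO2, then treated with compound for 5 days at 0.5% DMSO final. Proliferation measured by CellTiter-Glo luminescence after 10 min at RT.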

[2] = Human hepatocyte clearance study; format: in vitro ADME; conditions: human, pooled cryopreserved human hepatocytes (suspension), working cell density 2 × 10^6 viable cells/mL
Method: (§1) The in vitro human hepatocyte clearance of compounds described here was studied using pooled human hepatocytes purchased from BioreclamationIVT (Westbury, NY, Cat #X008001, Lot #TQJ). The assay was conducted according to manufacturer's instruction. Briefly, 10 mM stock solutions of test compounds and positive control (Verapamil) were prepared in 100% DMSO. Thawing media (50 mL) used in the study consists of 31 mL Williams E medium (GIBCO Cat #12551-032), 15 mL isotonic percoll (GE Healthcare Cat #17-0891-09), 500 uL 100× GlutaMax (GIBCO Cat #35050), 750 uL HEPES (GIBCO Cat #15630-080), 2.5 mL FBS (Corning Cat #35-076-CVR), 50 uL human insulin (GIBCO Cat #12585-014) and 5 uL dexamethasone (NICPBP). Incubation media is made of Williams E medium supplemented with 1× GlutaMax. Both thawing medium and incubation medium (serum-free) were placed in a 37° C. water bath for at least 15 minutes prior to use. Compound stock solutions were diluted to 100 μM by combining 198 μL of 50% acetonitrile/50% water and 2 μL of 10 mM stock solution. Verapamil was use as positive control in the assay. Vials of cryopreserved hepatocytes were removed from storage and thawed in a 37° C. water bath with gentle shaking. Contents of the vial were poured into the 50 mL thawing medium conical tube. Vials were centrifuged at 100 g for 10 minutes at room temperature. […] […] […] The boiled hepatocytes were used to prepare negative samples. Aliquots of 198 μL hepatocytes were dispensed into each well of a 96-well non-coated plate. The plate was placed in the incubator on an orbital shaker at 500 rpm for approximately 10 minutes. Aliquots of 2 μL of the 100 μM test compound or positive control were added into respective wells of the non-coated 96-well plate to start the reaction. This assay was performed in duplicate. The plate was incubated in the incubator on an orbital shaker at 500 rpm for the designated time points. Twenty-five microliter of contents were transferred and mixed with 6 volumes (150 μL) of cold acetonitrile with IS (200 nM imipramine, 200 nM labetalol and 200 nM diclofenac) to terminate the reaction at time points of 0, 15, 30, 60, 90 and 120 minutes. Samples were centrifuged at 3,220 g for 25 minutes and aliquots of 150 μL of the supernatants were used for LC-MS/MS analysis. For data analysis, all calculations were carried out using Microsoft Excel. Peak areas were determined from extracted ion chromatograms. The in vitro half-life (t1/2) of parent compound was determined by regression analysis of the percent parent disappearance vs. time curve. […] Scaling factors for in vivo intrinsic clearance prediction using human hepatocytes are listed as: liver weight (g liver/kg body weight): 25.7; hepatocyte concentration (10^6 cells/g liver): 99; scaling factor: 2544.3.

[3] = test system: pooled human hepatocytes; assay: Human hepatocyte clearance study; format: in vitro ADME
Method: as §1

[4] = test system: SW837 xenograft; assay: Colorectal adenocarcinoma SW837 xenograft model, tumor volume; format: in vivo, BALB/c nude mice; conditions: 30 mg/kg oral once daily vs AMG510 at 60 mg/kg; FIG. 1
Method: (§2) All the procedures related to animal handling, care and the treatment in this study were performed according to the guidelines approved by the Institutional Animal Care and Use Committee (IACUC) of SIPPER B&K following the guidance of the Association for Assessment and Accreditation of Laboratory Animal Care (AAALAC). At the time of routine monitoring, the animals were checked for any effects of tumor growth on normal behavior such as mobility, food and water consumption (by looking only), body weight gain/loss (body weights were measured twice weekly), eye/hair matting and any other abnormal effect. Death and observed clinical signs were recorded on the basis of the numbers of animals within each subset.
(§3) The NCI-H358, SW837, NCI-H2122 tumor cells were purchased from the American Type Culture Collection (ATCC). Cells were maintained in vitro as monolayer cultured in RPMI-1640 or DMEM medium supplemented with 10% fetal bovine serum, 50 IU/ml penicillin/streptomycin (GIBCO) at 37° C. in an atmosphere of 5% CO2 in air. The tumor cells were routinely sub cultured twice weekly by trypsin-EDTA treatment. The cells growing in an exponential growth phase were harvested and counted for tumor inoculation.
(§4) For tumor bearing models, female 6- to 8-week-old athymic BALB/c nude mice were used for human cancer cell lines. Each mouse was inoculated subcutaneously at the right flank with tumor cells (10×10^6) in 0.1 ml of PBS. The treatments were started when the average tumor size reached approximately 200-250 mm^3. Carboplatin, Cisplatin was injected twice a week by i.p. Vehicles and other test articles were given orally as a suspension by gavage once daily during the study or treatment period.
(§5) Tumor volume was calculated by measuring two perpendicular diameters using the following formula: (L×W 2)/2 in which L and W refer to the length and width tumor diameter, respectively. Results are expressed as mean and standard deviation of the mean.

[5] = test system: NCI-H358 xenograft; assay: NSCLC H358 xenograft model, tumor volume; format: in vivo, BALB/c nude mice; conditions: for reduction of tumor volume, combined treatment vs either agent alone: FIG. 5
Method: as §2, §3, §4, §5

[6] = test system: NCI-H2122 xenograft; assay: NSCLC H2122 xenograft model, tumor volume; format: in vivo, BALB/c nude mice; conditions: 60 mg/kg oral once daily vs AMG510 at 60 mg/kg; FIG. 3
Method: as §2
as §3, with “The tumor cells were routinely sub cultured twice weekly by trypsin-EDTA treatment.” left out, “inoculation. […]” for “inoculation.”
as §5

Q: For `C=CC(=O)N1C[C@H](C)N(c2nc(=O)n(-c3c(C4CC4)ncnc3C3CC3)c3nc(-c4c(N)cccc4F)c(Cl)cc23)C[C@H]1C` [Compound 126], which “potency in inhibiting KRAS G12C compared with corresponding isopropyl analogs” value [1] is on record?
A: better potency

Q: What about the IC50 ([1]; Homo sapiens, NCI-H358, 120 h, NCI-H358, 5 days, Cell-titer Glo, read-out: IC50 (nM), Inhibition of NCI-H358 Cell Proliferation) of the same compound?
A: 0.6 nM

Q: And the “fold more potent: 2-amino-6-fluoro-phenyl compound vs. corresponding 2-fluoro-phenyl compound at R8” value ([1]; NCI-H358 IC50 comparison)?
A: about 15 ×

Q: And the hepatocyte CLint at 1 µM ([2]; read-out: Human In vitro Clint (μl/min/10^6 cells))?
A: 6.6 µL/min/1e6 cells

Q: And the half-life at 1 µM ([2]; read-out: Human In vitro T1/2)?
A: 1.73 h

Q: And the CLint scaled at 1 µM ([2]; read-out: Human Scale-up Clint)?
A: 17 mL/min/kg

Q: And the “human hepatocyte clearance profile compared to control compounds” value [3]?
A: better human hepatocyte clearance profile

Q: And the “Human Hepatocyte Remaining Percentage @ 120 min (%)” value ([3]; working cell density 2 × 10^6 viable cells/mL)?
A: 47.8%

Q: What about the “reducing tumor volume compared with AMG510” value (shortened to “reducing tumor volume”) [4] of the same compound?
A: more effective than AMG510

Q: And the “reducing tumor volume” value ([5]; 30 mg/kg oral once daily vs AMG510 at 30 mg/kg, FIG. 2)?
A: more effective than AMG510

Q: And the “reduction of tumor volume, combined treatment vs either agent alone” value ([5]; Compound 126 at 5 mg/kg combined with RMC-4550 at 10 mg/kg)?
A: much better reduction of tumor volume

Q: And the “reduction of tumor volume, combined treatment vs either agent alone” value ([5]; Compound 126 at 5 mg/kg combined with cisplatin at 2 mg/kg)?
A: much better reduction of tumor volume

Q: What about the “reducing tumor volume” value [6] of the same compound?
A: more effective than AMG510
